How the values were obtained:
Type in all cases: in vivo, rat
SHR and WKY rats [1] = experiment: Maximal TGF responses during orthograde microperfusion of L-arginine (Series 5); conditions: for PSF difference 0-40 nl·min^−1 (maximal TGF response) / PSF during LH perfusion at 0 nl·min^−1 / PSF during LH perfusion at 40 nl·min^−1: ATF+L-arginine 10^−3 M, mean ± SEM
Experimental: (§1) Series 4. Effects of inhibition of bNOS on maximal TGF responses in SHR and WKY. These experiments further examined the SHR hypertension model and whether the enhanced TGF of the SHR kidney is due to a blunted generation of NO by bNOS in the macula densa or whether NOS inhibition is diminished in the SHR model. Groups of SHR and age-matched WKY rats were prepared for in vivo micropuncture, microperfusion, and TGF studies as described in detail previously. In brief, animals were anesthetized with thiobarbital (Inactin, 100 mg·kg^−1; Research Biochemicals, Inc., Natick, Mass.). A catheter was placed in a jugular vein for fluid infusion and in a femoral artery for recording of mean arterial pressure (MAP) from the electrically damped output of a pressure transducer (Statham, Inc.). A tracheotomy tube was inserted and the animals were allowed to breathe spontaneously. The left kidney was exposed by a flank incision, cleaned of connective tissue, and stabilized in a Lucite cup. This kidney was bathed in 0.154 M NaCl maintained at 37° C. After completion of surgery, rats were infused with a solution of 0.154 M NaCl and 1% albumin at 1.5 ml·h^−1 to maintain a euvolemic state. Micropuncture studies were begun after 60 min for stabilization.
(§2) For orthograde microperfusion of the loop of Henle (LH), a micropipette (8 μm OD) containing artificial tubular fluid (ATF) stained with FD&C dye was inserted into a late proximal tubule. Injections of the colored ATF identified the nephron and the direction of flow. An immobile bone wax block was inserted into this micropuncture site via a micropipette (10-15 μm) and connected to a hydraulic drive (Trent Wells, Inc., LaJolla, Calif.) to halt tubular fluid flow. A perfusion micropipette (6-8 μm) containing ATF and test compounds or vehicle was inserted into the proximal tubule downstream from the wax block and connected to a nanoliter perfusion pump (WPI, Sarasota, Fla.). A pressure micropipette (1-2 μm) was inserted into the proximal tubule upstream from the wax block to measure proximal stop flow pressure (PSF). Changes in PSF are an index of changes in glomerular capillary hydraulic pressure (PGC). Measurements of PSF were made in each nephron during zero loop perfusion and during perfusion with ATF at 40 nl·min^−1, which produces a maximal TGF response, defined as the difference between PSF values recorded during perfusion of the loop with ATF at 0 and 40 nl·min^−1.
Series 5: Maximal TGF responses during microperfusion of L-arginine in SHR and WKY. L-arginine had previously been shown not to lower blood pressure or the glomerular filtration rate in the SHR model. However, L-arginine can restore a TGF response to NOS blockade in tested rats adapted to low salt intake. Therefore, the role of L-arginine was tested in the SHR model. This series examined the effect of a reduced delivery of L-arginine to the macula densa on NO generation, as assessed in Series 4. Groups of SHR (n=4) and WKY rats (n=3) were prepared for microperfusion. PSF was recorded during orthograde LH perfusion at 0 and 40 nl·min^−1 with ATF+vehicle and ATF+L-arginine (10^−3 M). (Previous studies had shown that this was a maximally effective dose.)

SHR and WKY rats [2] = experiment: Maximal TGF responses (proximal stop flow pressure) during orthograde loop of Henle microperfusion of 7-NI (Series 4); conditions: for PSF difference 0-40 nl·min^−1 (maximal TGF response) / PSF during LH perfusion at 0 nl·min^−1 / PSF during LH perfusion at 40 nl·min^−1: ATF+7-NI 10^−4 M, mean ± SEM
Experimental: as §1, §2
The maximal TGF responses were determined in SHR (n=4) and WKY rats (n=4) to perfusion of the LH with ATF+vehicle and contrasted with the maximal TGF responses during perfusion with ATF+7-nitroindazole (7-NI; 10^−4 M).

SHR rats = experiment: TGF response to 7-NI microperfused into the macula densa before and during Tempol microperfusion into efferent arterioles
Description: This also implies that it had normalized the action of NO in this setting, thereby correcting the defect in the NO action in hypertension and restoring normal vascular control. This is filly consistent with its action on a free radical scavenging agent that thereby protects NO from radical attack.

SHR [3] = experiment: TGF response to SNAP microperfused into the macula densa during Tempol microperfusion via the efferent arteriole
Description: Two additional microperfusion studies were undertaken to assess the mechanism of Tempol action in SHR. […] A dose of 10^−6 M […] (SNAP), a NO donor compound, was microperfused into the macula densa of the rats. […] Other NO donor compounds include nitroprusside and nitrates.

SHR [4] = experiment: Role of NO in the MAP response to constant Tempol infusion (L-NAME or norepinephrine pretreatment); conditions: for Change in MAP at 50 min (time control): separate group of SHR, NS

N=C(N)NCCC[C@H](N)C(=O)O [L-arginine]
PSF difference 0-40 nl·min^−1 (maximal TGF response) (SHR and WKY rats [1]; SHR): 10.6 ± 0.7 mm Hg
PSF during LH perfusion at 0 nl·min^−1 (SHR and WKY rats [1]; SHR): 41.0 ± 1.2 mm Hg
PSF during LH perfusion at 40 nl·min^−1 (SHR and WKY rats [1]; SHR): 30.4 ± 0.7 mm Hg
Effect on TGF responses (SHR and WKY rats [1]; SHR, L-arginine added to orthograde LH perfusate): no significant effects
PSF difference 0-40 nl·min^−1 (maximal TGF response) (SHR and WKY rats [1]; WKY): 6.3 ± 0.4 mm Hg
PSF during LH perfusion at 0 nl·min^−1 (SHR and WKY rats [1]; WKY): 36.1 ± 0.7 mm Hg
PSF during LH perfusion at 40 nl·min^−1 (SHR and WKY rats [1]; WKY): 29.8 ± 0.5 mm Hg
Average blunting of TGF responses (SHR and WKY rats [1]; WKY, L-arginine added to orthograde LH perfusate): 18%

O=[N+]([O-])c1cccc2cn[nH]c12 [7-NI, 7-nitroindazole]
Effect on TGF responses (SHR and WKY rats [2]; SHR, 7-NI added to orthograde LH perfusate): no significant effects
PSF difference 0-40 nl·min^−1 (maximal TGF response) (SHR and WKY rats [2]; SHR): 12.5 ± 0.6 mm Hg
PSF during LH perfusion at 0 nl·min^−1 (SHR and WKY rats [2]; SHR): 41.0 ± 1.0 mm Hg
PSF during LH perfusion at 40 nl·min^−1 (SHR and WKY rats [2]; SHR): 29.3 ± 0.7 mm Hg
Average increase in maximal TGF response (SHR and WKY rats [2]; WKY, 7-NI added to orthograde LH perfusate): 39%
PSF difference 0-40 nl·min^−1 (maximal TGF response) (SHR and WKY rats [2]; WKY): 13.2 ± 0.7 mm Hg
PSF during LH perfusion at 0 nl·min^−1 (SHR and WKY rats [2]; WKY): 38.1 ± 0.8 mm Hg
PSF during LH perfusion at 40 nl·min^−1 (SHR and WKY rats [2]; WKY): 25.0 ± 1.2 mm Hg
Increase in TGF in the presence of 7-NI (SHR rats; 7-NI 10^−4 M during Tempol 10^−4 M microperfusion into efferent arterioles): greater than 25%
TGF response to 7-NI before Tempol (SHR rats; 7-NI 10^−4 M into macula densa, before Tempol): no significant TGF response

CC(=O)N[C@H](C(=O)O)C(C)(C)SN=O (racemic) [SNAP, 5-nitroacetylpenacillamine]
Blunting of TGF response (SHR [3]; SNAP 10^−6 M during Tempol 10^−4 M microperfusion via efferent arteriole, p<0.01): more than 25%
Effect of SNAP dose alone on TGF (SHR [3]; SNAP 10^−6 M into macula densa, without Tempol): just subthreshold

COC(=O)[C@@H](N)CCCNC(=N)N[N+](=O)[O-] [L-NAME]
Increase in MAP (SHR [4]; SHR, twenty minutes of L-NAME infusion alone): 18%
MAP after L-NAME infusion alone (SHR [4]; SHR, twenty minutes of L-NAME infusion, from 158±11): 187±8 mm Hg
Change in MAP at 50 min (time control) (SHR [4]; L-NAME infusion): 0.3±3.3%

NC[C@H](O)c1ccc(O)c(O)c1 [Norepinephrine, norepinephrine]
Increase in MAP (SHR [4]; SHR, norepinephrine 31 nmol·kg^−1·min^−1): 15%
MAP after norepinephrine infusion (SHR [4]; SHR, norepinephrine 31 nmol·kg^−1·min^−1, from 164±4): 188±7 mm Hg
Change in MAP at 50 min (time control) (SHR [4]; norepinephrine infusion): 2.0±0.0%

Source: patent US6617337B1, “Use of nitroxides for the treatment of essential hypertension” (Georgetown University, priority 1997, dated 2003)
